Numbers after ± are expanded uncertainties.
Key:
[1] = 101.3 kPa, Liquid, Vibrating tube method
[2] = wn = mass fraction of the nth substance listed; conditions: 101.3 kPa, Liquid, Vibrating tube method, w2 = 0

Structure (SMILES) | mass density ([1]; 293.15 K) | mass density ([1]; 298.15 K) | mass density ([1]; 303.15 K) | mass density ([1]; 308.15 K) | mass density ([1]; 313.15 K) | mass density ([1]; 318.15 K) | mass density ([1]; 323.15 K) | mass density ([1]; 328.15 K) | mass density ([1]; 333.15 K) | mass density ([1]; 338.15 K) | mass density ([1]; 343.15 K) | mass density ([2]; 313.15 K) | mass density ([2]; 318.15 K) | mass density ([2]; 323.15 K) | mass density ([2]; 328.15 K) | mass density ([2]; 333.15 K) | mass density ([2]; 338.15 K) | mass density ([2]; 343.15 K)
CN(C)CCCO [3-dimethylamino-1-propanol] | 886.7 ± 4.8 kg/m3 | 883 ± 4.8 kg/m3 | 879.1 ± 4.8 kg/m3 | 875.1 ± 4.8 kg/m3 | 871.2 ± 4.8 kg/m3 | 867.2 ± 4.8 kg/m3 | 863.1 ± 4.8 kg/m3 | 859.1 ± 4.8 kg/m3 | 855 ± 4.8 kg/m3 | 850.8 ± 4.8 kg/m3 | 846.7 ± 4.8 kg/m3 |  |  |  |  |  |  | 
O [water] |  |  |  |  | 992.3 ± 1 kg/m3 | 990.3 ± 1 kg/m3 | 988 ± 1 kg/m3 | 985.6 ± 1 kg/m3 | 983.3 ± 1 kg/m3 | 980.7 ± 1 kg/m3 | 977.9 ± 1 kg/m3 |  |  |  |  |  |  | 
O [water] + CN(C)CCCO |  |  |  |  |  |  |  |  |  |  |  | 992.3 ± 4.8 kg/m3 | 990.3 ± 4.8 kg/m3 | 988 ± 4.8 kg/m3 | 985.6 ± 4.8 kg/m3 | 983.3 ± 4.8 kg/m3 | 980.7 ± 4.8 kg/m3 | 977.9 ± 4.8 kg/m3
